The target of the test is Recombinant chicken cardiac troponin C (cTnC) (Gallus gallus, UniProt P09860). As to the kind of experiment: intrinsic tyrosine fluorescence quenching titration, hyperbolic plus linear fit. The class given is binding.

Usually Kd stands for the concentration at which binding is half-saturated.

On to `O=C(O[C@@H]1Cc2c(O)cc(O)cc2O[C@@H]1c1cc(O)c(O)c(O)c1)c1cc(O)c(O)c(O)c1` [EGCg], for which the Kd was found to be 65 µM.

The record behind these values is PMC3637861 (Journal of muscle research and cell motility, 2013).
